Test results taken from PubChem BioAssay (NCI).
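Each compound was tested at five concentrations against cells in 96-well plates for 48 hours. TGI: total growth inhibition.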

Assays:
Assay in all cases: inhibition of tumour cell growth, NCI panel, 48 h
SNB-75 CNS = test system: SNB-75 CNS
NCI/ADR-RES ovarian = test system: NCI/ADR-RES ovarian
OVCAR-5 ovarian = test system: OVCAR-5 ovarian
HL-60(TB) leukemia = test system: HL-60(TB) leukemia
SN12C renal = test system: SN12C renal
K-562 leukemia = test system: K-562 leukemia
HCT-15 colon = test system: HCT-15 colon
OVCAR-4 ovarian = test system: OVCAR-4 ovarian
A549 NSCLC = test system: A549 NSCLC
T-47D breast = test system: T-47D breast
SW-620 colon = test system: SW-620 colon
HS 578T breast = test system: HS 578T breast
UACC-62 melanoma = test system: UACC-62 melanoma
EKVX NSCLC = test system: EKVX NSCLC
BT-549 breast = test system: BT-549 breast
OVCAR-8 ovarian = test system: OVCAR-8 ovarian
DU-145 prostate = test system: DU-145 prostate
RPMI-8226 leukemia = test system: RPMI-8226 leukemia
M14 melanoma = test system: M14 melanoma
HOP-62 NSCLC = test system: HOP-62 NSCLC
UACC-257 melanoma = test system: UACC-257 melanoma
SK-MEL-2 melanoma = test system: SK-MEL-2 melanoma
NCI-H226 lung = test system: NCI-H226 lung
PC-3 prostate = test system: PC-3 prostate
MALME-3M melanoma = test system: MALME-3M melanoma
MDA-N = test system: MDA-N
OVCAR-3 ovarian = test system: OVCAR-3 ovarian
RXF 393 renal = test system: RXF 393 renal
A498 renal = test system: A498 renal
786-0 renal = test system: 786-0 renal
U251 CNS = test system: U251 CNS
SNB-19 CNS = test system: SNB-19 CNS
MOLT-4 leukemia = test system: MOLT-4 leukemia
HCC-2998 colon = test system: HCC-2998 colon
CCRF-CEM leukemia = test system: CCRF-CEM leukemia
IGROV1 ovarian = test system: IGROV1 ovarian
ACHN renal = test system: ACHN renal
COLO 205 colon = test system: COLO 205 colon
UO-31 renal = test system: UO-31 renal
HOP-92 NSCLC = test system: HOP-92 NSCLC
MDA-MB-231 breast = test system: MDA-MB-231 breast
SF-295 CNS = test system: SF-295 CNS
NCI-H23 lung = test system: NCI-H23 lung
SF-539 CNS = test system: SF-539 CNS
LOX IMVI melanoma = test system: LOX IMVI melanoma
MCF7 breast = test system: MCF7 breast
HCT-116 colon = test system: HCT-116 colon
SK-MEL-28 melanoma = test system: SK-MEL-28 melanoma
MDA-MB-435 = test system: MDA-MB-435
SF-268 CNS = test system: SF-268 CNS
CAKI-1 renal = test system: CAKI-1 renal
SR leukemia = test system: SR leukemia
HT29 colon = test system: HT29 colon
KM12 colon = test system: KM12 colon
SK-MEL-5 melanoma = test system: SK-MEL-5 melanoma
TK-10 renal = test system: TK-10 renal
SK-OV-3 ovarian = test system: SK-OV-3 ovarian
NCI-H522 lung = test system: NCI-H522 lung
NCI-H460 lung = test system: NCI-H460 lung

CC(C)(C)OC(=O)N/N=C(/N)Cc1ccccc1
TGI (SNB-75 CNS): > 100 µM | TGI (NCI/ADR-RES ovarian): > 100 µM | TGI (OVCAR-5 ovarian): > 100 µM | TGI (HL-60(TB) leukemia): > 100 µM | TGI (SN12C renal): > 100 µM | TGI (K-562 leukemia): > 100 µM | TGI (HCT-15 colon): > 100 µM | TGI (OVCAR-4 ovarian): > 100 µM | TGI (A549 NSCLC): > 100 µM | TGI (T-47D breast): > 100 µM | TGI (SW-620 colon): > 100 µM | TGI (HS 578T breast): > 100 µM | TGI (UACC-62 melanoma): > 100 µM | TGI (EKVX NSCLC): > 100 µM | TGI (BT-549 breast): > 100 µM | TGI (OVCAR-8 ovarian): > 100 µM | TGI (DU-145 prostate): > 100 µM | TGI (RPMI-8226 leukemia): > 100 µM | TGI (M14 melanoma): > 100 µM | TGI (HOP-62 NSCLC): > 100 µM | TGI (UACC-257 melanoma): > 100 µM | TGI (SK-MEL-2 melanoma): > 100 µM | TGI (NCI-H226 lung): > 100 µM | TGI (PC-3 prostate): > 100 µM | TGI (MALME-3M melanoma): > 100 µM | TGI (MDA-N): > 100 µM | TGI (OVCAR-3 ovarian): > 100 µM | TGI (RXF 393 renal): > 100 µM | TGI (A498 renal): > 100 µM | TGI (786-0 renal): > 100 µM | TGI (U251 CNS): > 100 µM | TGI (SNB-19 CNS): > 100 µM | TGI (MOLT-4 leukemia): > 100 µM | TGI (HCC-2998 colon): > 100 µM | TGI (CCRF-CEM leukemia): > 100 µM | TGI (IGROV1 ovarian): > 100 µM | TGI (ACHN renal): > 100 µM | TGI (COLO 205 colon): > 100 µM | TGI (UO-31 renal): > 100 µM | TGI (HOP-92 NSCLC): > 100 µM | TGI (MDA-MB-231 breast): > 100 µM | TGI (SF-295 CNS): > 100 µM | TGI (NCI-H23 lung): > 100 µM | TGI (SF-539 CNS): > 100 µM | TGI (LOX IMVI melanoma): > 100 µM | TGI (MCF7 breast): > 100 µM | TGI (HCT-116 colon): > 100 µM | TGI (SK-MEL-28 melanoma): > 100 µM | TGI (MDA-MB-435): > 100 µM | TGI (SF-268 CNS): > 100 µM | TGI (CAKI-1 renal): > 100 µM | TGI (SR leukemia): > 100 µM | TGI (HT29 colon): > 100 µM | TGI (KM12 colon): > 100 µM | TGI (SK-MEL-5 melanoma): > 100 µM | TGI (TK-10 renal): > 100 µM | TGI (SK-OV-3 ovarian): > 100 µM | TGI (NCI-H522 lung): > 100 µM

COC(=O)C1=C(C)NC(C)=C(C(=O)OC)C1c1cccc(NO)c1
TGI (NCI/ADR-RES ovarian): 42.3 µM | TGI (OVCAR-5 ovarian): 30.1 µM | TGI (SN12C renal): 32.9 µM | TGI (K-562 leukemia): > 100 µM | TGI (HCT-15 colon): 41.4 µM | TGI (OVCAR-4 ovarian): 27.8 µM | TGI (A549 NSCLC): > 100 µM | TGI (T-47D breast): 55.4 µM | TGI (SW-620 colon): 28.5 µM | TGI (HS 578T breast): 64.4 µM | TGI (UACC-62 melanoma): 34.3 µM | TGI (EKVX NSCLC): 70.9 µM | TGI (BT-549 breast): 32.5 µM | TGI (OVCAR-8 ovarian): 30.2 µM | TGI (DU-145 prostate): > 100 µM | TGI (RPMI-8226 leukemia): > 100 µM | TGI (M14 melanoma): 33.2 µM | TGI (HOP-62 NSCLC): > 100 µM | TGI (UACC-257 melanoma): 27.5 µM | TGI (SK-MEL-2 melanoma): 30.8 µM | TGI (NCI-H226 lung): 40.7 µM | TGI (PC-3 prostate): 30.4 µM | TGI (MALME-3M melanoma): 29.9 µM | TGI (MDA-N): 28.5 µM | TGI (OVCAR-3 ovarian): 29.5 µM | TGI (RXF 393 renal): 27.1 µM | TGI (A498 renal): > 100 µM | TGI (786-0 renal): 28.3 µM | TGI (U251 CNS): 29.8 µM | TGI (SNB-19 CNS): > 100 µM | TGI (HCC-2998 colon): > 100 µM | TGI (CCRF-CEM leukemia): > 100 µM | TGI (IGROV1 ovarian): 30.4 µM | TGI (ACHN renal): 26.8 µM | TGI (COLO 205 colon): 30.3 µM | TGI (UO-31 renal): 23.6 µM | TGI (HOP-92 NSCLC): 23.8 µM | TGI (MDA-MB-231 breast): 31.4 µM | TGI (SF-295 CNS): 83.1 µM | TGI (NCI-H23 lung): 33.8 µM | TGI (SF-539 CNS): 32.6 µM | TGI (LOX IMVI melanoma): 29.9 µM | TGI (MCF7 breast): 38.5 µM | TGI (HCT-116 colon): 26.4 µM | TGI (SK-MEL-28 melanoma): 28.3 µM | TGI (MDA-MB-435): 30.9 µM | TGI (SF-268 CNS): 30.6 µM | TGI (CAKI-1 renal): 26.1 µM | TGI (SR leukemia): > 100 µM | TGI (HT29 colon): 32.4 µM | TGI (KM12 colon): 29.4 µM | TGI (SK-MEL-5 melanoma): 29.4 µM | TGI (NCI-H460 lung): 31.4 µM | TGI (TK-10 renal): 27.7 µM | TGI (SK-OV-3 ovarian): > 100 µM | TGI (NCI-H522 lung): 20.8 µM
